Results reported in patent publication US4279926A, “Method of relieving pain and treating inflammatory conditions in warm-blooded animals” (priority 1974, dated 1981).
In brackets after ≈: the same amount, converted by molar mass. Several values for one entry are separate records, joined by “and”; a condition that tells them apart may be missing. Equal entries are not always repeated. Structures can show the parent of a compound that is named as a salt.

Legend:
[1] = tested on: patients with degenerative osteoarticular affections; assay: Clinical trial, i.m. 500 mg/day, efficacy in degenerative osteoarticular diseases; type: in vivo, human
Source text: In a subsequent clinical trial, 33 human subjects were used with an average age of 73.8±6.8, the minimum age being 61 and the maximum age 88; 7 of the subjects were males and the remaining 26 were female.
These subjects presented osteoarticular diseases of a chronic or subacute type, in which, during the period of observation, an evolutive flare-up of a pre-existing mono- or polyarticular arthrosic process was verified, as well as the appearance ex novo of an arthralgic picture with functional impotence of the osteoarticular segments which previously appeared to be undamaged.
In these cases, the parenteral route of administration was used so as to obtain, in view of the watersoluble characteristics of the test material, a more rapid symptomatic control. Furthermore, this method of administration permits a ready control of any differences in gastric tolerance as compared with the oral administration route, which is more commonly used.
The test substance was injected in the morning between 8 and 8.30 a.m. Before starting the therapy, midway through it and immediately after it, the following parameters were controlled in order to ascertain how effective the treatment had been: Lansbury's dynamometer (the values of muscular strength were expressed in kg.); the range of articular flexion and extension (the basal finding was expressed conventionally with the notations "+" to "+++," the successive findings being assessed as "unchanged," "increased" or "decreased," compared with the pre-treatment findings; subjective algesic symptomatology, the criteria of evaluation being similar to those adopted for determining the range of articular flexion and extension; finger tip-floor distance test, obtained by measuring the distance between the tips of the fingers and the floor when the subject bends forward; and morning stiffness, this being the time taken for the disappearance of stiffness on awakening.
Thus, for the evaluation of the test substance, it was thus possible to have 3 quantitative parameters (morning stiffness, Lansbury's index and finger tip-floor distance) and 2 semiquantitative parameters (pain symptomatology and flexo-extension strength). This is sufficient to obtain a reliable therapeutic profile in the test subjects, where the subjective element plays a predominant role in determining the clinical picture, as well as the therapeutic response.
The numerical data obtained were analysed statistically by means of the calculation of the Student "t" test on the mean values found before and after treatment.

[2] = tested on: occult blood in faeces; assay: Occult blood in faeces (benzidine test); type: in vivo, human
Protocol: In cases with a history of gastroenteric disorders, even if not drug-dependent, the faeces were tested for the presence of occult blood, using the benzidine test.

[3] = Solubility; type: physicochemical
[4] = pH of aqueous solution; type: physicochemical
[5] = total mean values, especially during the first 3 hours
Protocol: The blood levels were then determined after 0.5, 1, 1.5, 2, 3, 4 and 5 hours.

[6] = tested on: carrageenin oedema, inflamed paw; assay: Carrageenin oedema of the rat paw (anti-inflammatory action, paw size/volume); type: in vivo, male Wistar rats; conditions: Table 2, 100 mg/kg p.o. (lysine salt: 60 as active substance)
[7] = tested on: gastro-intestinal mucosa; conditions: known from the art; cited from earlier work
[8] = tested on: pain threshold in the inflamed paw (carrageenin oedema); assay: Pain threshold under pressure of the inflamed (carrageenin) rat paw (analgesic action); conditions: Table 3, 100 mg/kg p.o. (lysine salt: 60 as active substance)
Protocol: At intervals after the treatment, the size of the treated paw and its sensitivity to pain under pressure were evaluated.

[9] = Stability; conditions: salt or its aqueous solution
[10] = of 18 cases with major initial involvement
[11] = end of experiment, of 14 positive before treatment

CC(C)Cc1ccc(C(C)C(=O)O)cc1 (racemic) [Example 1]
Cases with increase of flexo-extension strength ([1]; 33 patients, i.m. 500 mg/day): 36.3%
Cases with spontaneous pain reduced following treatment ([1]; 33 patients, i.m. 500 mg/day): 27 cases
Cases with spontaneous pain reduced following treatment (%) ([1]; 33 patients, i.m. 500 mg/day): 81.8%
Morning stiffness, mean after treatment ([1]; Table 7, after i.m. 500 mg/day, s.d. ± 8.2): 18.93 min
Morning stiffness, mean before treatment ([1]; Table 7, before treatment (baseline), s.d. ± 6.62): 20.17 min
Lansbury test, mean before treatment ([1]; Table 7, before treatment (baseline), s.d. ± 9.19): 30.96 kg
Fingertip-floor distance, mean before treatment ([1]; Table 7, before treatment (baseline), s.d. ± 12.4): 33.17 cm
Fingertip-floor distance, after treatment ([1]; Table 7, i.m. 500 mg/day, individual patients in order of case no. (cases 7, 8, 9, 14, 27-31, 33 not given), listed as lysine isobutylphenyl propionate): 45 cm and 40 cm and 30 cm and 28 cm and 15 cm and 11 cm and 6 cm and 20 cm and 24 cm and 48 cm and 38 cm and 18 cm and 46 cm and 35 cm
Morning stiffness, after treatment ([1]; Table 7, i.m. 500 mg/day, individual patients in order of case no. (cases 8, 9, 14, 26 not given), listed as lysine isobutylphenyl propionate): 30 min and 10 min and 0 min and 8 min and 2 min and 12 min and 25 min and 15 min and 11 min and 5 min and 9 min and 23 min and 18 min and 22 min and 20 min
Radiologic changes ([1]; after treatment vs before): no radiologic changes
Lansbury test, pre- vs post-treatment mean values ([1]; i.m. 500 mg/day): similar
Overall safety and clinical efficacy ([1]; i.m. 500 mg/day): safe and clinically effective
P, difference between pre- and post-treatment duration of morning stiffness ([1]; i.m. 500 mg/day, Student t test): < 0.01
Patients with "excellent" effect ([1]; i.m. 500 mg/day, of 33): 25 patients
Patients with "fair" result ([1]; i.m. 500 mg/day, of 33): 4 patients
Patients with "poor" or "nil" effect ([1]; i.m. 500 mg/day, of 33): 4 patients
Patients with marked improvement of flexo-extension strength [1, 10]: 10 patients
Patients with marked improvement of flexo-extension strength (%) [1, 10]: 55.5%
Anaemia in blood counts ([2]; end of experiment): did not reveal any cases of anaemia which could be considered pathological or at the most suspect
Faecal occult blood: haematic loss disappeared [2, 11]: 1 case
Faecal occult blood: haematic loss reduced [2, 11]: 6 cases
Faecal occult blood: haematic loss slightly increased [2, 11]: 2 cases
Faecal occult blood: haematic loss unchanged [2, 11]: 5 cases
Faecal occult blood positive in pretreatment phase ([2]; pretreatment (baseline)): 14 subjects
solubility ([3]; in water): ~400 mg/mL (≈ 1940 mM)
pH of aqueous solution [4]: substantially neutral pH
Blood levels compared with oral sodium salt [5]: higher blood levels are always obtained, especially during the first 3 hours, than after the oral administration of the sodium salt

CCCCC1C(=O)N(c2ccccc2)N(c2ccccc2)C1=O [Phenyl-butazone, phenylbutazone]
Paw volume - carrageenin oedema ([6]; 0 hrs, control 1.16 ± 0.02): 1.18 ± 0.02 mL
Paw volume, % variation referred to control ([6]; 3 hrs): -25.4%
Paw volume, % variation referred to control ([6]; 4 hrs): -23.6%
Paw volume - carrageenin oedema ([6]; 4 hrs, control 2.29 ± 0.05, **p = 0.01): 1.75 ± 0.05 mL
Paw volume, % variation referred to control ([6]; 5 hrs): -22.0%
Paw volume - carrageenin oedema ([6]; 5 hrs, control 2.36 ± 0.06, **p = 0.01): 1.84 ± 0.05 mL
Undesired side-effects (gastro-intestinal intolerance, ulceration) compared with phenyl-alkanoic acids [7]: also show these undesired side-effects in an even more pronounced form
Pain threshold - carrageenin oedema ([8]; 0 hrs, control 101.7 ± 3.19): 105.3 ± 3.03 g
Pain threshold - carrageenin oedema ([8]; 3 hrs, control 52.7 ± 2.00, **p = 0.01): 122.7 ± 2.92 g
Pain threshold - carrageenin oedema ([8]; 5 hrs, control 51.3 ± 2.15, **p = 0.01): 83.7 ± 4.04 g

CC(C)Cc1ccc(CC(=O)O)cc1 [Example 14, D,L-arginine salt of 2-(4-isobutyl-phenyl)-acetic acid]
Solubility in water [3]: moderately soluble in water
pH of aqueous solution [4]: pH close to neutrality
Stability [9]: stable solution

COc1ccc2c(c1)c(CC(=O)O)c(C)n2C(=O)c1ccc(Cl)cc1 [indomethacine]
Undesired side-effects (gastro-intestinal intolerance, ulceration) compared with phenyl-alkanoic acids [7]: also show these undesired side-effects in an even more pronounced form
